Results taken from US8754079B2, “Cycloalkyl containing thienopyrimidines for pharmaceutical compositions” (Boehringer Ingelheim International GmbH, priority 2010, dated 2014).

Molecular target: T1, MNK2 (Homo sapiens, UniProt Q9HBH9)
T1 construct: the open reading frames of human Mnk1 and Mnk2a were amplified from cDNA; made in house; host or cells: E. coli BL21
Assay: Mnk2a in vitro kinase assay (indirect fluorescence polarization)
Type: biochemical
Details: pre-activated GST-Mnk2a 2.5 nM, 20 μM ATP, 30 μM substrate peptide
In short: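 Human GST-Mnk2a was expressed in E. coli and activated in vitro with 150 nM pre-activated ERK2 and 50 μM ATP in HEPES pH 7.4/MgCl2 buffer (45 min, 30 °C). Activity on an eIF4E Ser209-derived 12mer peptide was read by competitive fluorescence polarization with a phospho-specific antibody.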

T1 sequence (Q9HBH9 whole entry): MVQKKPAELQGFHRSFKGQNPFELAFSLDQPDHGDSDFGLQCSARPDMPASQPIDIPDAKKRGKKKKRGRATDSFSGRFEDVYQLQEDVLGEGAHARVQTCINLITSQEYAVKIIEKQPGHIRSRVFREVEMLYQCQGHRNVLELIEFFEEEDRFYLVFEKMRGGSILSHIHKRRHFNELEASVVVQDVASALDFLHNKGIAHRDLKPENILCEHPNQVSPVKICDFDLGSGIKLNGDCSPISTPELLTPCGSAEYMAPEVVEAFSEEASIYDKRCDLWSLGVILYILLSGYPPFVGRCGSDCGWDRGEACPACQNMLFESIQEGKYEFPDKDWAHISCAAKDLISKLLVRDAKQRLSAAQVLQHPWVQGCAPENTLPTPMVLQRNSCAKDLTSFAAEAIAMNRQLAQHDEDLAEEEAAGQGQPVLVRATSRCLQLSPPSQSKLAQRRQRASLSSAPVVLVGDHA

IC50 [nM]	SMILES
93	COC1CCCC(Oc2cc(F)ccc2Nc2ncnc3sc(C(=O)NC4CCN(C)CC4)c(C)c23)C1 (stereo not shown) [Example 86]
38	COC1CCCC(Oc2cc(F)ccc2Nc2ncnc3sc(C(=O)NCCCN4CCCC4)c(C)c23)C1 (stereo not shown) [Example 87]
34	COC1CCCC(Oc2cc(F)ccc2Nc2ncnc3sc(C(=O)NC4CC4N)c(C)c23)C1 (stereo not shown) [Example 90]
21	COC1CCCC(Oc2cc(F)ccc2Nc2ncnc3sc(C(=O)NCC#N)c(C)c23)C1 (stereo not shown) [Example 94]
14	COC1CCCC(Oc2cc(F)ccc2Nc2ncnc3sc(C(=O)NCC#CCN(C)C)c(C)c23)C1 (stereo not shown) [Example 96]
36	COC1CCCC(Oc2cc(F)ccc2Nc2ncnc3sc(C(=O)NCC4COCCN4)c(C)c23)C1 (stereo not shown) [Example 99]
34	COC1CCCC(Oc2cc(F)ccc2Nc2ncnc3sc(C(=O)NC4CCN(C)CC4)c(C)c23)C1 (stereo not shown) [Example 102]
18	COC1CCCC(Oc2cc(F)ccc2Nc2ncnc3sc(C(=O)NCc4cn(C)cn4)c(C)c23)C1 (stereo not shown) [Example 107]
19	COC1CCCC(Oc2cc(F)ccc2Nc2ncnc3sc(C(=O)NCCCN(C)C)c(C)c23)C1 (stereo not shown) [Example 108]
19	COC1CCCC(Oc2ncccc2Nc2ncnc3sc(C(=O)NCC#N)c(C)c23)C1 (stereo not shown) [Example 115]
12	COC1CCCC(Oc2ncccc2Nc2ncnc3sc(C(=O)NCC#CCN(C)C)c(C)c23)C1 (stereo not shown) [Example 117]
26	COC1CCCC(Oc2ncccc2Nc2ncnc3sc(C(=O)NC4CCN(C)CC4)c(C)c23)C1 (stereo not shown) [Example 123]
11	Cc1c(C(N)=O)sc2ncnc(Nc3ccc(F)cc3O[C@H]3CC[C@@H](O)CC3)c12 [Example 150]
36	Cc1c(C(=O)NCCCN(C)C)sc2ncnc(Nc3ccc(F)cc3O[C@H]3CC[C@@H](O)CC3)c12 [Example 151, 4-[4-Fluoro-2-(cis-4-hydroxy-cyclohexyloxy)-phenylamino]-5-methyl-thieno[2,3-d]pyrimidine-6-carboxylic acid (3-dimethylamino-propyl)-amide]
11	Cc1c(C(=O)NCCCN(C)C)sc2ncnc(Nc3ccc(F)cc3O[C@H]3CC[C@H](O)CC3)c12 [Example 152, 4-[4-Fluoro-2-(trans-4-hydroxy-cyclohexyloxy)-phenylamino]-5-methyl-thieno[2,3-d]pyrimidine-6-carboxylic acid (3-dimethylamino-propyl)-amide]
9	Cc1c(C(=O)NCCCN2CCCC2)sc2ncnc(Nc3ccc(F)cc3O[C@H]3CC[C@H](O)CC3)c12 [Example 153, 4-[4-Fluoro-2-(trans-4-hydroxy-cyclohexyloxy)-phenylamino]-5-methyl-thieno[2,3-d]pyrimidine-6-carboxylic acid (3-pyrrolidin-1-yl-propyl)-amide]
9	Cc1c(C(=O)NCCO)sc2ncnc(Nc3ccc(F)cc3O[C@H]3CC[C@H](O)CC3)c12 [Example 155]
13	Cc1c(C(=O)NCCCn2ccnc2)sc2ncnc(Nc3ccc(F)cc3O[C@H]3CC[C@H](O)CC3)c12 [Example 156]

Further lines, the compound ahead of its results:

SMILES	IC50 [nM]
Cc1c(C(=O)NCCCN(C)C)sc2ncnc(Nc3ccc(F)cc3OC3CCC(F)(F)CC3)c12 [Example 34, 4-[2-(4,4-Difluoro-cyclohexyloxy)-4-fluoro-phenylamino]-5-methyl-thieno[2,3-d]pyrimidine-6-carboxylic acid (3-dimethylamino-propyl)-amide]	28
CC(=O)N[C@H]1C[C@H](Oc2cc(F)ccc2Nc2ncnc3sc(C(=O)O)c(C)c23)C1 [Example 35.2, 4-[2-(trans-3-Acetylamino-cyclobutoxy)-4-fluoro-phenylamino]-5-methyl-thieno[2,3-d]pyrimidine-6-carboxylic acid]	23
CC(=O)N[C@H]1C[C@H](Oc2cc(F)ccc2Nc2ncnc3sc(C(N)=O)c(C)c23)C1 [Example 35.3, 4-[2-(trans-3-Acetylamino-cyclobutoxy)-4-fluoro-phenylamino]-5-methyl-thieno[2,3-d]pyrimidine-6-carboxylic acid amide]	23
CC(=O)N[C@H]1C[C@H](Oc2cc(F)ccc2Nc2ncnc3sc(C(=O)NCCCN(C)C)c(C)c23)C1 [Example 36]	66
CCNC(=O)c1sc2ncnc(Nc3ccc(F)cc3O[C@H]3C[C@H](NC(C)=O)C3)c2c1C [Example 37]	69
CONC(=O)c1sc2ncnc(Nc3ccc(F)cc3O[C@H]3C[C@H](NC(C)=O)C3)c2c1C [Example 38]	70
CC(=O)N[C@H]1C[C@H](Oc2cc(F)ccc2Nc2ncnc3sc(C(=O)NCCCN4CCCC4)c(C)c23)C1 [Example 39]	61
CC(=O)N[C@H]1C[C@H](Oc2cc(F)ccc2Nc2ncnc3sc(C(=O)NC4CCN(C)CC4)c(C)c23)C1 [Example 40]	40
CC(=O)N[C@H]1C[C@H](Oc2cc(F)ccc2Nc2ncnc3sc(C(=O)NCCO)c(C)c23)C1 [Example 41]	152
CO[C@H]1CCCC[C@@H]1Oc1cc(F)ccc1Nc1ncnc2sc(C(N)=O)c(C)c12 [Example 42, 4-[4-Fluoro-2-((1S,2S)-2-methoxy-cyclohexyloxy)-phenylamino]-5-methyl-thieno[2,3-d]pyrimidine-6-carboxylic acid amide]	140
CO[C@H]1CCCC[C@@H]1Oc1cc(F)ccc1Nc1ncnc2sc(C(=O)NCCCN(C)C)c(C)c12 [Example 43, 4-[4-Fluoro-2-((1S,2S)-2-methoxy-cyclohexyloxy)-phenylamino]-5-methyl-thieno[2,3-d]pyrimidine-6-carboxylic acid (3-dimethylamino-propyl)-amide]	360
Cc1c(C(N)=O)sc2ncnc(Nc3ccc(F)cc3O[C@H]3CCCC[C@@H]3O)c12 [Example 51, 4-[4-Fluoro-2-((1S,2S)-2-hydroxy-cyclohexyloxy)-phenylamino]-5-methyl-thieno[2,3-d]pyrimidine-6-carboxylic acid amide]	13
Cc1c(C(N)=O)sc2ncnc(Nc3ccc(F)cc3O[C@@H]3CCCC[C@H]3O)c12 [Example 52, 4-[4-Fluoro-2-((1R,2R)-2-hydroxy-cyclohexyloxy)-phenylamino]-5-methyl-thieno[2,3-d]pyrimidine-6-carboxylic acid amide]	30
Cc1c(C(=O)NCCCN(C)C)sc2ncnc(Nc3ccc(F)cc3O[C@@H]3CCCC[C@H]3O)c12 [Example 53, 4-[4-Fluoro-2-((1R,2R)-2-hydroxy-cyclohexyloxy)-phenylamino]-5-methyl-thieno[2,3-d]pyrimidine-6-carboxylic acid (3-dimethylamino-propyl)-amide]	54
COCCNC(=O)c1sc2ncnc(Nc3ccc(F)cc3O[C@@H]3CCCC[C@H]3O)c2c1C [Example 54, 4-[4-Fluoro-2-((1R,2R)-2-hydroxy-cyclohexyloxy)-phenylamino]-5-methyl-thieno[2,3-d]pyrimidine-6-carboxylic acid (2-methoxy-ethyl)-amide]	62
Cc1c(C(=O)NCCCN2CCCC2)sc2ncnc(Nc3ccc(F)cc3O[C@H]3CCC[C@H](O)C3)c12 [Example 75]	18
COC1CCCC(Oc2cc(F)ccc2Nc2ncnc3sc(C(=O)NCC#CCN)c(C)c23)C1 (stereo not shown) [Example 80]	31
COC1CCCC(Oc2cc(F)ccc2Nc2ncnc3sc(C(=O)NCCCCO)c(C)c23)C1 (stereo not shown) [Example 81]	98
COC1CCCC(Oc2cc(F)ccc2Nc2ncnc3sc(C(=O)NCC4COCCN4)c(C)c23)C1 (stereo not shown) [Example 84]	91
